Experimental data: PubChem BioAssay (NCI)
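Method: 48-hour compound exposure of cells in 96-well plates, five concentrations, linear interpolation of endpoints. GI50 marks 50% less growth. TGI: concentration producing complete growth inhibition.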

Columns and labels:
Assay in all cases: NCI-60 cell line screen, 48 h
HOP-62 NSCLC = system: HOP-62 NSCLC
U251 CNS = system: U251 CNS
SNB-75 CNS = system: SNB-75 CNS
BT-549 breast = system: BT-549 breast
DU-145 prostate = system: DU-145 prostate
786-0 renal = system: 786-0 renal
ACHN renal = system: ACHN renal
TK-10 renal = system: TK-10 renal
NCI-H23 lung = system: NCI-H23 lung
PC-3 prostate = system: PC-3 prostate
RPMI-8226 leukemia = system: RPMI-8226 leukemia
A549 NSCLC = system: A549 NSCLC
HL-60(TB) leukemia = system: HL-60(TB) leukemia
A498 renal = system: A498 renal
HOP-92 NSCLC = system: HOP-92 NSCLC
UACC-257 melanoma = system: UACC-257 melanoma
MALME-3M melanoma = system: MALME-3M melanoma
SN12C renal = system: SN12C renal
CCRF-CEM leukemia = system: CCRF-CEM leukemia
HS 578T breast = system: HS 578T breast
T-47D breast = system: T-47D breast
HCT-116 colon = system: HCT-116 colon
NCI-H226 lung = system: NCI-H226 lung
NCI-H460 lung = system: NCI-H460 lung
HT29 colon = system: HT29 colon
RXF 393 renal = system: RXF 393 renal
SK-MEL-2 melanoma = system: SK-MEL-2 melanoma
LOX IMVI melanoma = system: LOX IMVI melanoma
OVCAR-5 ovarian = system: OVCAR-5 ovarian
UO-31 renal = system: UO-31 renal
MDA-MB-468 breast = system: MDA-MB-468 breast
SK-MEL-5 melanoma = system: SK-MEL-5 melanoma
MDA-MB-231 breast = system: MDA-MB-231 breast
SNB-19 CNS = system: SNB-19 CNS
SK-OV-3 ovarian = system: SK-OV-3 ovarian
KM12 colon = system: KM12 colon
HCT-15 colon = system: HCT-15 colon
MCF7 breast = system: MCF7 breast
SF-295 CNS = system: SF-295 CNS
M14 melanoma = system: M14 melanoma
SW-620 colon = system: SW-620 colon
SK-MEL-28 melanoma = system: SK-MEL-28 melanoma
UACC-62 melanoma = system: UACC-62 melanoma
SF-268 CNS = system: SF-268 CNS
K-562 leukemia = system: K-562 leukemia
COLO 205 colon = system: COLO 205 colon
MDA-MB-435 = system: MDA-MB-435
IGROV1 ovarian = system: IGROV1 ovarian
EKVX NSCLC = system: EKVX NSCLC
SF-539 CNS = system: SF-539 CNS
CAKI-1 renal = system: CAKI-1 renal
HCC-2998 colon = system: HCC-2998 colon
OVCAR-8 ovarian = system: OVCAR-8 ovarian
NCI-H522 lung = system: NCI-H522 lung
NCI/ADR-RES ovarian = system: NCI/ADR-RES ovarian
OVCAR-3 ovarian = system: OVCAR-3 ovarian

SMILES: CN(C)c1nc(NCCNS(=O)(=O)c2ccc(C3=Nc4c(N)nc(N)nc4NC(c4ccc(Cl)cc4)C3)cc2)nc(Nc2ccc(F)cc2)n1 (configuration not stated)
- GI50 (HOP-62 NSCLC): > 100 µM
- TGI (HOP-62 NSCLC): > 100 µM
- GI50 (U251 CNS): 5.14 µM
- TGI (U251 CNS): > 100 µM
- GI50 (SNB-75 CNS): 3.76 µM
- TGI (SNB-75 CNS): > 100 µM
- GI50 (BT-549 breast): 3.96 µM
- TGI (BT-549 breast): 28.7 µM
- GI50 (DU-145 prostate): > 100 µM
- TGI (DU-145 prostate): > 100 µM
- GI50 (786-0 renal): 6.21 µM
- TGI (786-0 renal): > 100 µM
- GI50 (ACHN renal): > 100 µM
- TGI (ACHN renal): > 100 µM
- GI50 (TK-10 renal): > 100 µM
- TGI (TK-10 renal): > 100 µM
- GI50 (NCI-H23 lung): 72.7 µM
- TGI (NCI-H23 lung): > 100 µM
- GI50 (PC-3 prostate): 3.44 µM
- TGI (PC-3 prostate): > 100 µM
- GI50 (RPMI-8226 leukemia): 3.19 µM
- TGI (RPMI-8226 leukemia): > 100 µM
- GI50 (A549 NSCLC): > 100 µM
- TGI (A549 NSCLC): > 100 µM
- GI50 (HL-60(TB) leukemia): 2.72 µM
- TGI (HL-60(TB) leukemia): 13.3 µM
- GI50 (A498 renal): 58.4 µM
- TGI (A498 renal): > 100 µM
- GI50 (HOP-92 NSCLC): 2.53 µM
- TGI (HOP-92 NSCLC): 13.2 µM
- GI50 (UACC-257 melanoma): 8.07 µM
- TGI (UACC-257 melanoma): > 100 µM
- GI50 (MALME-3M melanoma): 3.86 µM
- TGI (MALME-3M melanoma): 19.2 µM
- GI50 (SN12C renal): 7.38 µM
- TGI (SN12C renal): > 100 µM
- GI50 (CCRF-CEM leukemia): 2.92 µM
- TGI (CCRF-CEM leukemia): > 100 µM
- GI50 (HS 578T breast): 7.15 µM
- TGI (HS 578T breast): > 100 µM
- GI50 (T-47D breast): 7.93 µM
- TGI (T-47D breast): > 100 µM
- GI50 (HCT-116 colon): 3.77 µM
- TGI (HCT-116 colon): > 100 µM
- GI50 (NCI-H226 lung): > 100 µM
- TGI (NCI-H226 lung): > 100 µM
- GI50 (NCI-H460 lung): 4.49 µM
- TGI (NCI-H460 lung): > 100 µM
- GI50 (HT29 colon): 2.68 µM
- TGI (HT29 colon): 7.54 µM
- GI50 (RXF 393 renal): 2.27 µM
- TGI (RXF 393 renal): 8.75 µM
- GI50 (SK-MEL-2 melanoma): 3.34 µM
- TGI (SK-MEL-2 melanoma): 14 µM
- GI50 (LOX IMVI melanoma): 1.77 µM
- TGI (LOX IMVI melanoma): 3.55 µM
- GI50 (OVCAR-5 ovarian): > 100 µM
- TGI (OVCAR-5 ovarian): > 100 µM
- GI50 (UO-31 renal): > 100 µM
- TGI (UO-31 renal): > 100 µM
- GI50 (MDA-MB-468 breast): 1.92 µM
- TGI (MDA-MB-468 breast): 4.92 µM
- GI50 (SK-MEL-5 melanoma): 3.45 µM
- TGI (SK-MEL-5 melanoma): 14.3 µM
- GI50 (MDA-MB-231 breast): 3.73 µM
- TGI (MDA-MB-231 breast): 65.7 µM
- GI50 (SNB-19 CNS): 5.67 µM
- TGI (SNB-19 CNS): > 100 µM
- GI50 (SK-OV-3 ovarian): > 100 µM
- TGI (SK-OV-3 ovarian): > 100 µM
- GI50 (KM12 colon): 3.98 µM
- TGI (KM12 colon): > 100 µM
- GI50 (HCT-15 colon): > 100 µM
- TGI (HCT-15 colon): > 100 µM
- GI50 (MCF7 breast): 2.89 µM
- TGI (MCF7 breast): > 100 µM
- GI50 (SF-295 CNS): 6.2 µM
- TGI (SF-295 CNS): > 100 µM
- GI50 (M14 melanoma): 3.15 µM
- TGI (M14 melanoma): 11.5 µM
- GI50 (SW-620 colon): 5.95 µM
- TGI (SW-620 colon): > 100 µM
- GI50 (SK-MEL-28 melanoma): 8.22 µM
- TGI (SK-MEL-28 melanoma): > 100 µM
- GI50 (UACC-62 melanoma): 6.46 µM
- TGI (UACC-62 melanoma): > 100 µM
- GI50 (SF-268 CNS): 5.74 µM
- TGI (SF-268 CNS): > 100 µM
- GI50 (K-562 leukemia): 3.08 µM
- TGI (K-562 leukemia): > 100 µM
- GI50 (COLO 205 colon): 5.65 µM
- TGI (COLO 205 colon): 25.6 µM
- GI50 (MDA-MB-435): 5.17 µM
- TGI (MDA-MB-435): > 100 µM
- GI50 (IGROV1 ovarian): 9.95 µM
- TGI (IGROV1 ovarian): > 100 µM
- GI50 (EKVX NSCLC): 5.05 µM
- TGI (EKVX NSCLC): > 100 µM
- GI50 (SF-539 CNS): 3.3 µM
- TGI (SF-539 CNS): > 100 µM
- GI50 (CAKI-1 renal): 8.07 µM
- TGI (CAKI-1 renal): > 100 µM
- GI50 (HCC-2998 colon): 3.14 µM
- TGI (HCC-2998 colon): 18.4 µM
- GI50 (OVCAR-8 ovarian): > 100 µM
- TGI (OVCAR-8 ovarian): > 100 µM
- GI50 (NCI-H522 lung): 16 µM
- TGI (NCI-H522 lung): > 100 µM
- GI50 (NCI/ADR-RES ovarian): > 100 µM
- TGI (NCI/ADR-RES ovarian): > 100 µM
- GI50 (OVCAR-3 ovarian): 7.45 µM
- TGI (OVCAR-3 ovarian): > 100 µM
